Data from US20240316136A1, “ANESTHETIC METHOD OF SPOTTED SEABASS WITH PLANT ESSENTIAL OILS” (Shanghai Ocean University, priority 2024, published 2024).

Assays:
Format in all cases: in vivo, Lateolabrax maculatus
[1] = test system: spotted seabass; assay: Oxidative stress indicators (SOD, CAT, GSH-Px) in blood
Procedure: (§1) In accordance with the principles and guiding regulations established by the Animal Protection and Utilization Committee of Shanghai Ocean University (SHOU-DW-2022-059), 200 mg/L MS-222 was used to anesthetize fish. Venous-arterial blood samples were obtained from the caudal vein using a 1 mL syringe with 10% EDTA as an anticoagulant and then preserved in anticoagulation tubes. In addition, another portion of the blood was collected without anticoagulant, then kept at 4° C. for a duration of 12 hours for stationary. The coagulated blood was centrifuged at 4000×g for 20 min at 4° C. The serum was extracted and placed in the refrigerator at −40° C. for testing.
Superoxide Dismutase (SOD), Catalase (CAT) and Glutathione Peroxidase (GSH-Px) kits (Nanjing Jiancheng Bioengineering Institute, Nanjing, China) were used to determine SOD, CAT and GSH-Px activities in blood.

[2] = test system: spotted seabass; assay: Sedation, anesthesia induction and resuscitation time of spotted seabass in anesthetic bath; design: key to Stage IV (deep anesthesia) time / Resuscitation time / Stage I (light sedation) time / Stage II (deep sedation) time / Stage III (light anesthesia) time: —: No anesthetic effect
Procedure: • 1. Healthy spotted seabass with uniform sizes and uniform respiration rates were selected and acclimated for 24 h. During the acclimatization period, the water temperature was 22±1° C., the salinity was 16%, the dissolved oxygen was 6 mg/L, pH was 7.5, and the fish-water ratio was 1:50. The metabolic wastes of the spotted seabass were discharged during acclimatization period. • 2. The emulsified Cinnamomum camphora essential oils were added to the aquariums respectively. The water temperature was controlled at 22±1° C. […] The spotted seabass were transferred to aquariums (5 fish per aquarium) with different concentrations of the Cinnamomum camphora essential oil, MS-222 and linalool anesthetics, and anesthetic concentrations, sedation concentrations and duration of anesthesia were recorded for the spotted seabass. • 4. The fish were extracted once deep anesthesia was achieved. Recovery was defined as the restoration of fish to their typical swimming behavior; the resuscitation time of the spotted seabass were recorded. • 5. The optimal concentration range was obtained, and oxidative stress and tissue injury were measured. [table] One-way analysis of variance (ANOVA) was used to evaluate the data (anesthetic induction and recovery time) using SPSS 26.0 software (SPSS Inc., Chicago, IL, USA). The significant variation was determined using Duncan's multiple range test (P<0.05). Graphs were created using Origin software.

[3] = test system: spotted seabass; assay: Immunological indicators (ACP/AKP, IgM, LZM) in serum
Procedure: as §1
(§2) Acid phosphatase (ACP), glucose (GLU) and lactic acid (LD) kits (Nanjing Jiancheng Bioengineering Institute, Nanjing, China) were used to measure ACP, GLU and LD levels.
Lysozyme (LZM) activity was determined by the method of De Souza et al. Serum immunoglobulin M (IgM) concentration was measured using a fish ELISA kit (Nanjing Jiancheng Bioengineering Institute, Nanjing, China).

[4] = test system: spotted seabass gill tissue; assay: Gill tissue histopathology by light microscope after anesthesia
Procedure: • 1. Healthy spotted seabass with uniform sizes and uniform respiration rates were selected and acclimated for 24 h. During the acclimatization period, the water temperature was 22±1° C., the salinity was 16%, the dissolved oxygen was 6 mg/L, pH was 7.5, and the fish-water ratio was 1:50. The metabolic wastes of the spotted seabass were discharged during acclimatization period. • 2. The emulsified Cinnamomum camphora essential oils were added to the aquariums respectively. The water temperature was controlled at 22±1° C. The concentrations of the emulsified Cinnamomum camphora essential oil were 10, 20, 30, 50, 100, 150, 200 mg/L, respectively, and the same concentrations of MS-222 anesthesia solution and linalool solution were prepared at the same time. • 3. The spotted seabass were transferred to aquariums (5 fish per aquarium) with different concentrations of the Cinnamomum camphora essential oil, MS-222 and linalool anesthetics, and anesthetic concentrations, sedation concentrations and duration of anesthesia were recorded for the spotted seabass. • 4. The fish were extracted once deep anesthesia was achieved. Recovery was defined as the restoration of fish to their typical swimming behavior; the resuscitation time of the spotted seabass were recorded. • 5. The optimal concentration range was obtained, and oxidative stress and tissue injury were measured. […]

[5] = test system: spotted seabass; assay: Blood biochemical analysis (RBC, HCT, HGB)
Procedure: as §1
Red blood cell count (RBC), haematocrit (HCT), and hemoglobin (HGB) in blood samples were measured in a Myriad Veterinary Automatic Blood Cell Analyser (BC-2800vet, Shenzhen, China).

[6] = test system: spotted seabass; assay: Energy metabolism indexes (glucose, lactic acid); conditions: after anesthesia; comparison between anesthetic groups, P<0.05
Procedure: as §1, §2

[7] = after 24 h of recovery, vs initial
[8] = after 24 h of recovery, vs initial values, p<0.05

CCOC(=O)c1cccc(N)c1.CS(=O)(=O)O [MS-222, tricaine methanesulfonate]
CAT activity [1, 7]: recovered to the initial values
SOD activity [1, 7]: recovered to the initial values
SOD, CAT and GSH-Px activities ([1]; after anesthesia): increasing trend
Resuscitation time ([2]; 5 mg/L in water): —
Stage I (light sedation) time ([2]; 5 mg/L in water): —
Stage II (deep sedation) time ([2]; 5 mg/L in water): —
Stage III (light anesthesia) time ([2]; 5 mg/L in water): —
Stage IV (deep anesthesia) time ([2]; 5 mg/L in water): —
Resuscitation time ([2]; 10 mg/L in water): —
Stage I (light sedation) time ([2]; 10 mg/L in water): 90.67 ± 2.08 s
Stage II (deep sedation) time ([2]; 10 mg/L in water): —
Stage III (light anesthesia) time ([2]; 10 mg/L in water): —
Stage IV (deep anesthesia) time ([2]; 10 mg/L in water): —
Resuscitation time ([2]; 20 mg/L in water): —
Stage I (light sedation) time ([2]; 20 mg/L in water): 73.67 ± 5.86 s
Stage II (deep sedation) time ([2]; 20 mg/L in water): 111.67 ± 2.08 s
Stage III (light anesthesia) time ([2]; 20 mg/L in water): —
Stage IV (deep anesthesia) time ([2]; 20 mg/L in water): —
Resuscitation time ([2]; 30 mg/L in water): —
Stage I (light sedation) time ([2]; 30 mg/L in water): 59.00 ± 3.00 s
Stage II (deep sedation) time ([2]; 30 mg/L in water): 102.33 ± 2.52 s
Stage III (light anesthesia) time ([2]; 30 mg/L in water): 122.67 ± 2.52 s
Stage IV (deep anesthesia) time ([2]; 30 mg/L in water): —
Resuscitation time ([2]; 50 mg/L in water): 217.00 ± 2.00 s
Stage I (light sedation) time ([2]; 50 mg/L in water): 39.67 ± 2.52 s
Stage II (deep sedation) time ([2]; 50 mg/L in water): 64.00 ± 3.61 s
Stage III (light anesthesia) time ([2]; 50 mg/L in water): 83.00 ± 3.00 s
Stage IV (deep anesthesia) time ([2]; 50 mg/L in water): 185.00 ± 4.36 s
Resuscitation time ([2]; 100 mg/L in water): 240.00 ± 2.00 s
Stage I (light sedation) time ([2]; 100 mg/L in water): 30.00 ± 3.00 s
Stage II (deep sedation) time ([2]; 100 mg/L in water): 41.00 ± 4.58 s
Stage III (light anesthesia) time ([2]; 100 mg/L in water): 70.67 ± 4.04 s
Stage IV (deep anesthesia) time ([2]; 100 mg/L in water): 174.00 ± 4.58 s
Resuscitation time ([2]; 150 mg/L in water): 290.33 ± 3.06 s
Stage I (light sedation) time ([2]; 150 mg/L in water): 20.67 ± 2.52 s
Stage II (deep sedation) time ([2]; 150 mg/L in water): 35.00 ± 2.00 s
Stage III (light anesthesia) time ([2]; 150 mg/L in water): 63.00 ± 3.61 s
Stage IV (deep anesthesia) time ([2]; 150 mg/L in water): 147.67 ± 2.52 s
Resuscitation time ([2]; 200 mg/L in water): 349.33 ± 3.06 s
Stage I (light sedation) time ([2]; 200 mg/L in water): 19.67 ± 2.52 s
Stage II (deep sedation) time ([2]; 200 mg/L in water): 29.67 ± 2.52 s
Stage III (light anesthesia) time ([2]; 200 mg/L in water): 55.33 ± 2.08 s
Stage IV (deep anesthesia) time ([2]; 200 mg/L in water): 140.33 ± 2.08 s
Optimal anesthetic concentration ([2]; criterion: induction in around 3 min and recovery within 5 min): 100 mg/L
Concentration showing deep sedation ([2]; in vivo): 20 mg/L
Concentration showing light anesthesia effect (Stage III) ([2]; in vivo): 30 mg/L
Concentration showing light sedation effect (Stage I) ([2]; in vivo): 10 mg/L
Minimum concentration required to achieve profound anesthesia (Stage IV) ([2]; in vivo, iv): 50 mg/L
IgM concentration ([3]; after anesthesia): decreased
LZM activity ([3]; after anesthesia, change from initial): decreased
AKP activity ([3]; on exposure to anesthetic): increased
Gill tissue histopathological changes [4]: chloride cells underwent significant proliferation
Percentage of hematocrit [5, 8]: lower
Red blood cell count (RBC) [5, 8]: higher
Percentage of hematocrit ([5]; after deep anesthesia, comparison between anesthetic groups, p<0.05): higher
Hemoglobin concentration ([5]; in vivo): higher
Red blood cell count (RBC) ([5]; in vivo): higher
Glucose concentration [6]: Greater
